Results published in paper PMC3017052, “A Novel Peptide Derived from Human Apolipoprotein E Is an Inhibitor of Tumor Growth and Ocular Angiogenesis” (PLoS ONE, 2011).

Legend:
[1] = system: HUVEC; format: cell-based, human; conditions: 48 h
Description: To confirm that apoEdp affects cell survival, cell viability was determined using the cell titer 96®AQuous One solution cell proliferation kit. ApoEdp treatment of HUVECs induced a dose-dependent inhibition of cell viability (Fig. 1A). […] To determine whether apoEdp suppresses tumor growth by directly affecting tumor cells, we performed a cell viability assay using human breast cancer MDA-MB-231 cell line in vitro and cell titer 96®AQuous One solution cell proliferation kit.
Figure 1 ApoEdp affects HUVEC survival but not MDA-MB-231. A. HUVEC: ApoEdp has a significant effect on VEGF-induced HUVEC viability. Cells were treated with apoEdp at the indicated concentrations and incubated with constant 50 ng/mL VEGF for 48 hr. All values were normalized to cell control of no VEGF and no apoEdp. Cell viability values (mean ± SEM) are expressed as % of the value of the VEGF control. B. MDA-MB-231: ApoEdp has no effect on MDA-MB-231viability. ApoEdp has no significant effect on MDA-MB-231 survival. Cells were treated with apoEdp at the indicated concentrations and incubated at 37°C for 2 days. Cell viability values (mean ± SEM) are expressed as % of the value of the control (untreated cells). […]
The effect of apoEdp on ED survival was evaluated. […] Two days later, cell numbers were determined using the CellTiter96 AQueous One solution cell proliferation kit (Promega, Madison, WI).

[2] = system: HUVEC; test: Boyden chamber migration/invasion assay; format: cell-based, human; conditions: Boyden chamber transwell, 50 ng/mL VEGF, 16 hr at 37°C, apoEdp 6–100 µM; read-out: IC50, inhibition of VEGF-induced HUVEC migration and invasion
Excerpt: The complex process of new blood vessel formation involves migration and invasion of ECs. The inhibition of EC motility through migration and invasion could thus be expected to affect the angiogenic process. To evaluate the ability of apoEdp in blocking VEGF-induced HUVEC migration and invasion, we used a Boyden chamber transwell assay (Materials and Methods). We quantified the invasion of HUVECs across the transwell. Cells which invaded across the membrane were stained with hematoxylin and eosin stain and counted (Fig. 4A–B). […] All values were normalized to cell numbers of transwells exposed to EBM containing 1% FBS without apoEdp and VEGF.
Figure 4 ApoEdp inhibits endothelial cell invasion. About 4×10^4 HUVECs were placed into each insert of Boyden chamber ([…]) (BD Biosciences) of 24-well transwell plate. The bottom chambers were filled with 600 µL medium supplemented with 50 ng/mL VEGF. The top chamber was seeded with approximately 4×10^4 HUVEC cells/well in 100 µL containing different concentrations of apoEdp and incubated at 37°C for 16 hs. HUVEC cells were then fixed and stained with H&E and counted under the microscope. […]
Boyden chamber migration/invasion assays were performed. […] Transwell invaded cells were counted using an inverted microscope. Three independent areas per filter were counted, and the mean ± SEM number of migrated cells was calculated.

[3] = system: MDA-MB-231 tumor xenografts; test: Xenograft tumor growth assay in nude mice; format: in vivo
Description: In order to assess the in vivo effect of apoEdp on tumor growth, we established subcutaneous human breast cancer MDA-MB-231 tumor xenografts in nude mice. Once tumor size became ∼100 mm^3 in approximately 10 days, mice were randomly divided into two groups, and treated with PBS or apoEdp at 40 mg/kg/day for three consecutive days.
Figure 6 ApoEdp inhibits tumor growth in vivo. MDA-MB-231 breast cancer cells were used for anti-tumor studies. A suspension of 3×10^6 cells in 0.1 mL of PBS was injected in the right dorsal flank. Tumors were monitored weekly in two diameters with digital calipers. Tumor volumes were determined using A×B^2×0.52 (where A is the longest and B is the shortest diameter). Tumors were allowed to grow to ∼100 mm^3 and mice were randomized. Single intralesional administration daily of PBS or 40 mg/kg/day of apoEdp for 3 consecutive days was performed and then stopped. Representative photographs of mouse xenograft treated with (A) apoEdp or PBS are shown.
Female nu/nu mice (8–12 weeks old, weighing ∼20 g) were obtained from […] (Harlan, Indianapolis, IN). […] The growth of the tumor xenograft was evaluated by determining the tumor volume using digital calipers every 7 days. Tumor volume was calculated using the relationship A×B^2×0.52, where A is the longest diameter and B the shortest. […]

## Ac-LRKLRKRLLLRKLRKRLL-NH2 [apoEdp]
[1]
  50% cytotoxicity (CC50), HUVEC viability: about 103 µM
[2]
  IC50: ~31.5 µM
[3]; nude (nu/nu) mice, 40 mg/kg/day intralesional for 3 consecutive days, compared to PBS-treated controls
  Tumor growth in MDA-MB-231 xenograft: significantly inhibited tumor growth
[3]; nude mice, 40 mg/kg/day for 3 days, data not shown
  Observable toxicity during treatment: no sign of observable toxicity
